For assay [1], the target named is T1, Mucosa-associated lymphoid tissue lymphoma translocation protein 1 (Homo sapiens, UniProt Q9UDY8).
T1 sequence (Q9UDY8 whole entry): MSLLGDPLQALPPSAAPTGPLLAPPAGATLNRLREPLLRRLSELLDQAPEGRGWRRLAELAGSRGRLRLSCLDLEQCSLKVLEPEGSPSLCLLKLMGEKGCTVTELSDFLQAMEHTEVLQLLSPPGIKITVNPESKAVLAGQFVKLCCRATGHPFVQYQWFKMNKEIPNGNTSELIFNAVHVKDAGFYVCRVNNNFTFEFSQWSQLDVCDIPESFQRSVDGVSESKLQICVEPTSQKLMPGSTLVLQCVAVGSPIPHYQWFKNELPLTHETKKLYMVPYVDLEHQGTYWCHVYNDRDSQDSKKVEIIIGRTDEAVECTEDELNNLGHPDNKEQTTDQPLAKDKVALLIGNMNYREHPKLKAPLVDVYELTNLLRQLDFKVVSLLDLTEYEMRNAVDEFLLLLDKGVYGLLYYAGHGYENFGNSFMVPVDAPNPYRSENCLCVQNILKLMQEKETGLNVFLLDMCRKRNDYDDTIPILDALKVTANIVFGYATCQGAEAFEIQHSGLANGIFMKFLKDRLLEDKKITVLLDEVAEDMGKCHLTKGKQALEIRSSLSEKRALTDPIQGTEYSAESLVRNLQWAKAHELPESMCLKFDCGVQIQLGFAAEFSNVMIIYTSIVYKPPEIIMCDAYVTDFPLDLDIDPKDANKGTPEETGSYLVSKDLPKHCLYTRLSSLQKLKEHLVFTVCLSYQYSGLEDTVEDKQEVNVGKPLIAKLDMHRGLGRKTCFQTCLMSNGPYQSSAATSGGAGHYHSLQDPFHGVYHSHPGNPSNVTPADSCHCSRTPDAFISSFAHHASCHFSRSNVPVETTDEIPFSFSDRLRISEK
The assay can be described thus: MALT1 Protease Assay 1. As to the method: The final assay buffer includes 2 nM of MALT1 full-length protein, 50 μM Ac-LRSR-AMC substrate, 50 mM Tris pH 7.5, 600 mM Sodium Citrate, 1 mM DTT, 1 mM EDTA, and 0.05% BSA in 384-well plate format using black microtiter square well plates (Optiplate 384-F, Perkin Elmer). Test compounds were dissolved in 100% DMSO at stock of 10 mM, with final DMSO concentration 0.1%. Test compounds were pre-incubated with MALT1 protein for 2 h at room temperature. Substrate was added after the pre-incubation and fluorescence signal was measured using Envision at excitation 355 nm and emission 460 nm after 8 hr incubation at RT. Increase in the assay signal was linear over this period and proportional with increase in the enzyme content.

Assay [2] deals with T1, Mucosa-associated lymphoid tissue lymphoma translocation protein 1. The assay can be described thus: MALT1 Protease Assay 2. As to the method:
Test compounds were dissolved in 100% DMSO at stock of 10 mM, with final DMSO concentration 0.1%. Test compounds were pre-incubated with MALT1 protein for 2 h at room temperature.

A value given as a limit tells only on which side of the number the result lay.

`O=C(Nc1cnc(-n2nccn2)c(Cl)c1)N1CC(C(F)(F)F)c2c1cnc1cc(Cl)nn21` (configuration not stated) [US20240018157, Example 2]: the IC50 in assay [1] is < 10 nM.

The compound `C[C@]1(C2CC2)CN(C(=O)Nc2cnc(-n3nccn3)c(Cl)c2)c2cnc3cc(Cl)nn3c21` [US20240018157, Example 3] showed an IC50 in assay [1] of 10 to 100 nM.

As to `C[C@@H]1CCN(C(=O)Nc2cnc(-n3nccn3)c(Cl)c2)c2cnc3cc(Cl)nn3c21` [US20240018157, Example 5], the IC50 in assay [1] was < 10 nM.

Compound `C[C@H]1CCN(C(=O)Nc2cnc(-n3nccn3)c(Cl)c2)c2cnc3cc(Cl)nn3c21` [US20240018157, Example 6] showed an IC50 in assay [1] of 10 to 100 nM.

On to `CC1(C)CCN(C(=O)Nc2cnc(-n3nccn3)c(Cl)c2)c2cnc3cc(Cl)nn3c21` [US20240018157, Example 7], for which, in assay [1], the IC50 is < 10 nM.

For `Cc1cc2ncc3c(n2n1)C(C(F)(F)F)CCN3C(=O)Nc1cnc(-n2nccn2)c(Cl)c1` (configuration not stated) [US20240018157, Example 10], the IC50 in assay [1] was < 10 nM.

Turning to `CC1(C)c2c(cnc3cc(Cl)nn23)N(C(=O)Nc2cnc(-n3nccn3)c(Cl)c2)C[C@@H]1O` [US20240018157, Example 11], in assay [1], the IC50 is 10 to 100 nM.

Turning to `CC1(C)c2c(cnc3cc(Cl)nn23)N(C(=O)Nc2cnc(-n3nccn3)c(Cl)c2)C[C@H]1O` [US20240018157, Example 12], the IC50 in assay [1] was < 10 nM.

The compound `CO[C@H]1CN(C(=O)Nc2cnc(-n3nccn3)c(Cl)c2)c2cnc3cc(Cl)nn3c2C1(C)C` [US20240018157, Example 13] had an IC50 in assay [1] of 10 to 100 nM.

In turn, `CO[C@@H]1CN(C(=O)Nc2cnc(-n3nccn3)c(Cl)c2)c2cnc3cc(Cl)nn3c2C1(C)C` [US20240018157, Example 14] returned an IC50 in assay [1] of 100 to 1000 nM.

In assay [1], `C[C@]1(C(F)(F)F)CN(C(=O)Nc2cnc(-n3nccn3)c(Cl)c2)c2cnc3cc(Cl)nn3c21` [US20240018157, Example 15] returned an IC50 of 10 to 100 nM.

For `C[C@@]1(C(F)(F)F)CN(C(=O)Nc2cnc(-n3nccn3)c(Cl)c2)c2cnc3cc(Cl)nn3c21` [US20240018157, Example 16], the IC50 in assay [1] was < 10 nM.

On to `COc1ccc(NC(=O)N2C[C@@](C)(C(F)(F)F)c3c2cnc2cc(Cl)nn32)cc1Cl` [US20240018157, Example 19], for which, in assay [1], the IC50 is < 10 nM.

`Cc1cc(NC(=O)N2C[C@@](C)(C(F)(F)F)c3c2cnc2cc(Cl)nn32)cnc1-n1nccn1` [US20240018157, Example 21]: the IC50 in assay [1] is < 10 nM.

Turning to `Cn1ccc(-c2ncc(NC(=O)N3C[C@@](C)(C(F)(F)F)c4c3cnc3cc(Cl)nn43)cc2Cl)n1` [US20240018157, Example 25], the IC50 in assay [1] was < 10 nM.

For `C[C@@]1(C(F)(F)F)CN(C(=O)Nc2cnc(-n3cccn3)c(Cl)c2)c2cnc3cc(Cl)nn3c21` [US20240018157, Example 26], in assay [1], the IC50 is < 10 nM.

`Cc1cc2ncc3c(n2n1)[C@@](C)(C(F)(F)F)CN3C(=O)Nc1cnc(-n2nccn2)c(Cl)c1` [US20240018157, Example 31] returned a half-maximal inhibitory concentration (IC50) in assay [1] of 10 to 100 nM.

As to `C[C@@]1(C(F)(F)F)CN(C(=O)Nc2cnc([C@@H]3CCCO3)c(Cl)c2)c2cnc3cc(Cl)nn3c21` [US20240018157, Example 33], the IC50 in assay [1] was in the range of 10 to 100 nM.

For the compound `C[C@@]1(C(F)(F)F)CN(C(=O)Nc2cnc([C@H]3CCCO3)c(Cl)c2)c2cnc3cc(Cl)nn3c21` [US20240018157, Example 34], the IC50 in assay [1] is < 10 nM.

In turn, `C[C@]1(C(F)(F)F)CN(C(=O)Nc2cnc(-n3nccn3)c(Cl)c2)c2cnc3cc(F)nn3c21` [US20240018157, Example 38] came in with an IC50 in assay [1] of 10 to 100 nM.

Consider `C[C@@]1(C(F)(F)F)CN(C(=O)Nc2cnc(-n3nccn3)c(C(F)(F)F)c2)c2cnc3cc(Cl)nn3c21` [US20240018157, Example 40], for which the 50% inhibitory concentration (IC50) in assay [1] is < 10 nM.

Regarding `C[C@@]1(C(F)(F)F)CN(C(=O)Nc2cnc(-n3nccn3)c(C#N)c2)c2cnc3cc(Cl)nn3c21` [US20240018157, Example 41], the IC50 in assay [1] was < 10 nM.

For `C[C@@]1(C(F)(F)F)CN(C(=O)Nc2cnc(-n3ccnn3)c(C(F)(F)F)c2)c2cnc3cc(Cl)nn3c21` [US20240018157, Example 44], the IC50 in assay [1] was < 10 nM.

In turn, `COCc1ncc(NC(=O)N2C[C@@](C)(C(F)(F)F)c3c2cnc2cc(Cl)nn32)cc1Cl` [US20240018157, Example 45] registered an IC50 in assay [1] of 10 to 100 nM.

Compound `C[C@@]1(C(F)(F)F)CN(C(=O)Nc2cnc([C@@H]3CCCCO3)c(Cl)c2)c2cnc3cc(Cl)nn3c21` [US20240018157, Example 46] displayed an IC50 in assay [1] of 10 to 100 nM.

On to `C[C@@]1(C(F)(F)F)CN(C(=O)Nc2cc(Cl)c(C(=O)O)c(O[C@H]3CCNC3)n2)c2cnc3cc(Cl)nn3c21` [US20240018157, Example 185], for which the IC50 in assay [2] was > 1000 nM.

Regarding `CNc1cc(NC(=O)N2C[C@@](C)(C(F)(F)F)c3c2cnc2cc(Cl)nn32)ncc1-n1nccn1` [US20240018157, Example 186], the IC50 in assay [2] is > 1000 nM.

In the case of `CNc1cc(NC(=O)N2C[C@@](C)(C(F)(F)F)c3c2cnc2cc(Cl)nn32)cnc1-n1ccnn1` [US20240018157, Example 187], the half-inhibitory concentration (IC50) in assay [2] is > 1000 nM.

In the case of `C[C@]1(C(F)(F)F)CN(C(=O)Nc2cnnc(C(F)F)c2)c2cnc3cc(C#N)nn3c21` [US20240018157, Example 189], the IC50 in assay [2] fell in the range of 100 to 1000 nM.

As for `C[C@@]1(C(F)(F)F)CN(C(=O)Nc2cnnc(C(F)F)c2)c2cnc3cc(C#N)nn3c21` [US20240018157, Example 190], the IC50 in assay [2] was > 1000 nM.

Turning to `CC(O)c1cnn(-c2ncc(NC(=O)N3C[C@@](C)(C(F)(F)F)c4c3cnc3cc(F)nn43)cc2C(F)F)n1` (some centres not stated) [US20240018157, Example 191], the IC50 in assay [2] is < 10 nM.

Consider `CNc1nc(NC(=O)N2C[C@@](C)(C(F)(F)F)c3c2cnc2cc(Cl)nn32)ccc1-n1nccn1` [US20240018157, Example 192], for which the IC50 in assay [2] is > 1000 nM.

As for `CCc1cc2ncc3c(n2n1)[C@@](C)(C(F)(F)F)CN3C(=O)Nc1cnnc(C(F)F)c1` [US20240018157, Example 194], the IC50 in assay [2] was > 1000 nM.

The compound `CCc1cc2ncc3c(n2n1)[C@](C)(C(F)(F)F)CN3C(=O)Nc1cnnc(C(F)F)c1` [US20240018157, Example 195] displayed an IC50 in assay [2] of 10 to 100 nM.

On to `C[C@]1(C(F)(F)F)CN(C(=O)Nc2cnnc(C(F)F)c2)c2cnc3cc(CC(F)(F)F)nn3c21` [US20240018157, Example 196], for which the IC50 in assay [2] is > 1000 nM.

`C[C@@]1(C(F)(F)F)CN(C(=O)Nc2cnnc(C(F)F)c2)c2cnc3cc(CC(F)(F)F)nn3c21` [US20240018157, Example 197]: the IC50 in assay [2] was > 1000 nM.

On to `C[C@]1(C(F)(F)F)CN(C(=O)Nc2cnnc(C(F)F)c2)c2cnc3cc(OC(F)F)nn3c21` [US20240018157, Example 199], for which the IC50 in assay [2] was > 1000 nM.

With `C[C@@]1(C(F)(F)F)CN(C(=O)Nc2cnnc(C(F)F)c2)c2cnc3cc(OC(F)F)nn3c21` [US20240018157, Example 200], the IC50 in assay [2] was > 1000 nM.

For the compound `O=C(Nc1cnc(-n2nccn2)c(Cl)c1)N1CC(O)(C(F)(F)F)c2c1cnc1cc(Cl)nn21` (configuration not stated) [US20240018157, Example 201], in assay [2], the IC50 was < 10 nM.

As for `C[C@]1(C(F)F)CN(C(=O)Nc2cnc(OC(F)F)c(Cl)c2)c2cnc3cc(Cl)nn3c21` [US20240018157, Example 204], the IC50 in assay [2] fell in the range of 10 to 100 nM.

With `C[C@@]1(C(F)F)CN(C(=O)Nc2cnc(OC(F)F)c(Cl)c2)c2cnc3cc(Cl)nn3c21` [US20240018157, Example 205], the IC50 in assay [2] was < 10 nM.

On to `Cc1cn2ncc3c(c2n1)C(C)(C)CN3C(=O)Nc1cnc(C(=O)N(C)C)c(Cl)c1` [US20240018157, Example 206], for which the IC50 in assay [2] was > 1000 nM.

For the compound `COC1CN(C(=O)c2ncc(NC(=O)N3CC(C)(C)c4c3cnn3cc(C)nc43)cc2Cl)C1` [US20240018157, Example 207], the IC50 in assay [2] is > 1000 nM.

`Cc1cn2ncc3c(c2n1)C(C)(C)CN3C(=O)Nc1cnc(C(=O)N2CC(O)C2)c(Cl)c1` [US20240018157, Example 208]: the IC50 in assay [2] was > 1000 nM.

On to `C[C@@]1(C(F)(F)F)CN(C(=O)Nc2cnc(C3COC3)c(Cl)c2)c2cnc3cc(Cl)nn3c21` [US20240018157, Example 209], for which the concentration for half-maximal inhibition (IC50) in assay [2] is > 1000 nM.

As to `Cn1cc([C@]2(C(F)(F)F)CN(C(=O)Nc3cnnc(C(F)F)c3)c3cnc4cc(Cl)nn4c32)cn1` [US20240018157, Example 210], the IC50 in assay [2] was > 1000 nM.

As to `Cn1cc([C@@]2(C(F)(F)F)CN(C(=O)Nc3cnnc(C(F)F)c3)c3cnc4cc(Cl)nn4c32)cn1` [US20240018157, Example 211], the IC50 in assay [2] was in the range of 10 to 100 nM.

Values taken from BindingDB's records for patent US20240018157 (Schrödinger, 2024).
